{"source": "ChEMBL document CHEMBL5550161", "about": "“Discovery of novel small molecules targeting the USP21/JAK2/STAT3 axis for the treatment of triple-negative breast cancer” (Eur J Med Chem, 2024)", "key": {"HCC1806 [1]": {"system": "HCC1806", "assay": "Anti-proliferative activity against human HCC1806 cells assessed as cell survival", "type": "functional", "conditions": "dose < 0.4 µM; time 24 hrs"}, "MDA-MB-231 [2]": {"system": "MDA-MB-231", "assay": "Inhibition of colony formation in human MDA-MB-231 cells at 0.05 uM measured after 7 days", "type": "functional, cell-based", "conditions": "time 7.0 day"}, "HCC1806 [3]": {"system": "HCC1806", "assay": "Inhibition of colony formation in human HCC1806 cells at 0.05 uM measured after 7 days", "type": "functional, cell-based", "conditions": "time 7.0 day"}, "HCC1806 [4]": {"system": "HCC1806", "assay": "Anti-proliferative activity against human HCC1806 cells assessed as reduction in EdU-positive cells at 0.2 uM", "type": "functional, cell-based"}, "MDA-MB-231 [5]": {"system": "MDA-MB-231", "assay": "Induction of apoptosis in human MDA-MB-231 cells assessed as viable cells at 0.1 uM incubated for 24 hrs by Annexin V-FITC/PI staining based flow cytometry (reference value: 97.54 %)", "type": "functional", "conditions": "read-out: Activity"}, "MDA-MB-231 [6]": {"system": "MDA-MB-231", "assay": "Induction of apoptosis in human MDA-MB-231 cells assessed as early apoptotic cells at 0.1 uM incubated for 24 hrs by Annexin V-FITC/PI staining based flow cytometry (reference value: 1.16 %)", "type": "functional"}, "MDA-MB-231 [7]": {"system": "MDA-MB-231", "assay": "Induction of apoptosis in human MDA-MB-231 cells assessed as late apoptotic cells at 0.2 uM incubated for 24 hrs by Annexin V-FITC/PI staining based flow cytometry (reference value: 1.23 %)", "type": "functional"}, "MDA-MB-231 [8]": {"system": "MDA-MB-231", "assay": "Induction of apoptosis in human MDA-MB-231 cells assessed as necrotic cells at 0.2 uM incubated for 24 hrs by Annexin V-FITC/PI staining based flow cytometry (reference value: 0.07 %)", "type": "functional"}, "MDA-MB-231 [9]": {"system": "MDA-MB-231", "assay": "Induction of apoptosis in human MDA-MB-231 cells assessed as early apoptotic cells at 0.4 uM incubated for 24 hrs by Annexin V-FITC/PI staining based flow cytometry (reference value: 1.16 %)", "type": "functional"}, "MDA-MB-231 [10]": {"system": "MDA-MB-231", "assay": "Induction of apoptosis in human MDA-MB-231 cells assessed as viable cells at 0.8 uM incubated for 24 hrs by Annexin V-FITC/PI staining based flow cytometry (reference value: 97.54 %)", "type": "functional", "conditions": "read-out: Activity"}, "MDA-MB-231 [11]": {"system": "MDA-MB-231", "assay": "Induction of apoptosis in human MDA-MB-231 cells assessed as late apoptotic cells at 0.8 uM incubated for 24 hrs by Annexin V-FITC/PI staining based flow cytometry (reference value: 1.23 %)", "type": "functional"}, "MDA-MB-231 [12]": {"system": "MDA-MB-231", "assay": "Induction of apoptosis in human MDA-MB-231 cells assessed as viable cells at 1.6 uM incubated for 24 hrs by Annexin V-FITC/PI staining based flow cytometry (reference value: 97.54 %)", "type": "functional", "conditions": "read-out: Activity"}, "HCC1806 [13]": {"system": "HCC1806", "assay": "Induction of apoptosis in human HCC1806 cells assessed as necrotic cells at 0.1 uM incubated for 24 hrs by Annexin V-FITC/PI staining based flow cytometry (reference value: 0.15 %)", "type": "functional"}, "HCC1806 [14]": {"system": "HCC1806", "assay": "Induction of apoptosis in human HCC1806 cells assessed as viable cells at 0.2 uM incubated for 24 hrs by Annexin V-FITC/PI staining based flow cytometry (reference value: 98.95 %)", "type": "functional", "conditions": "read-out: Activity"}, "HCC1806 [15]": {"system": "HCC1806", "assay": "Induction of apoptosis in human HCC1806 cells assessed as early apoptotic cells at 0.2 uM incubated for 24 hrs by Annexin V-FITC/PI staining based flow cytometry (reference value: 0.67 %)", "type": "functional"}, "HCC1806 [16]": {"system": "HCC1806", "assay": "Induction of apoptosis in human HCC1806 cells assessed as late apoptotic cells at 0.2 uM incubated for 24 hrs by Annexin V-FITC/PI staining based flow cytometry (reference value: 0.23 %)", "type": "functional"}, "HCC1806 [17]": {"system": "HCC1806", "assay": "Induction of apoptosis in human HCC1806 cells assessed as necrotic cells at 0.2 uM incubated for 24 hrs by Annexin V-FITC/PI staining based flow cytometry (reference value: 0.15 %)", "type": "functional"}, "HCC1806 [18]": {"system": "HCC1806", "assay": "Induction of apoptosis in human HCC1806 cells assessed as early apoptotic cells at 0.8 uM incubated for 24 hrs by Annexin V-FITC/PI staining based flow cytometry (reference value: 0.67 %)", "type": "functional"}, "HCC1806 [19]": {"system": "HCC1806", "assay": "Induction of apoptosis in human HCC1806 cells assessed as necrotic cells at 0.8 uM incubated for 24 hrs by Annexin V-FITC/PI staining based flow cytometry (reference value: 0.15 %)", "type": "functional"}, "HCC1806 [20]": {"system": "HCC1806", "assay": "Induction of apoptosis in human HCC1806 cells assessed as late apoptotic cells at 1.6 uM incubated for 24 hrs by Annexin V-FITC/PI staining based flow cytometry (reference value: 0.23 %)", "type": "functional"}, "MDA-MB-231 [21]": {"system": "MDA-MB-231", "assay": "Inhibition of cell migration in human MDA-MB-231 cells", "type": "functional, cell-based", "conditions": "dose 0.05-2 µM"}, "MDA-MB-231 [22]": {"system": "MDA-MB-231", "assay": "Inhibition of cell invasion in human MDA-MB-231 cells", "type": "functional, cell-based", "conditions": "dose 0.05-2 µM"}, "MDA-MB-231 [23]": {"system": "MDA-MB-231", "assay": "Induction of apoptosis in human MDA-MB-231 cells assessed as decrease in JAK2 level by Western blot analysis", "type": "functional, cell-based", "conditions": "dose 0.1-0.4 µM"}, "MDA-MB-231 [24]": {"system": "MDA-MB-231", "assay": "Induction of apoptosis in human MDA-MB-231 cells assessed as decrease in STAT3 phosphorylation at Y705 by Western blot analysis", "type": "functional, cell-based", "conditions": "dose 0.1-0.4 µM"}, "HCC1806 [25]": {"system": "HCC1806", "assay": "Induction of apoptosis in human HCC1806 cells assessed as decrease in STAT3 phosphorylation at Y705 by Western blot analysis", "type": "functional, cell-based", "conditions": "dose 0.1-0.4 µM"}, "HCC1806 [26]": {"system": "HCC1806", "assay": "Induction of apoptosis in human HCC1806 cells assessed as decrease in Bcl-2 level by Western blot analysis", "type": "functional, cell-based", "conditions": "dose 0.1-0.4 µM"}, "HCC1806 [27]": {"system": "HCC1806", "assay": "Downregulation of USP21 level in human HCC1806 cells at 0.1 to 0.4 uM incubated for 24 hrs by Western blot analysis", "type": "functional, cell-based", "conditions": "dose 0.1-0.4 µM"}, "HCC1806 [28]": {"system": "HCC1806", "assay": "Downregulation of SOCS3 level in human HCC1806 cells at 0.1 to 0.4 uM incubated for 24 hrs by Western blot analysis", "type": "functional, cell-based", "conditions": "dose 0.1-0.4 µM"}, "HCC1806 [29]": {"system": "HCC1806", "assay": "Effect on UCHL3 level in human HCC1806 cells at 0.1 to 0.4 uM incubated for 24 hrs by Western blot analysis", "type": "functional, cell-based", "conditions": "dose 0.1-0.4 µM"}, "[30]": {"assay": "Toxicity in Balb/c nude mouse assessed as behavioural changes at 60 mg/kg, ip bid for 14 days consecutively", "type": "organism-based", "conditions": "in vivo, 336 h, time 14 day"}, "[31]": {"assay": "Tmax in Sprague-Dawley rat at 4 mg/kg, ip", "type": "ADME, organism-based", "conditions": "in vivo"}, "[32]": {"assay": "AUC (0 to infinity) in Sprague-Dawley rat at 4 mg/kg, ip", "type": "ADME, organism-based", "conditions": "in vivo"}, "[33]": {"assay": "Toxicity in Balb/c nude mouse assessed as histopathological change in liver at 60 mg/kg, ip bid for 14 days consecutively", "type": "organism-based", "conditions": "in vivo, 336 h, time 14 day"}, "HCC1806 [34]": {"system": "HCC1806", "assay": "Antitumor activity against human HCC1806 cells xenografted in Balb/c mouse assessed as reduction in tumor volume at 40 to 60 mg/kg, ip bid measured after 14 days", "type": "functional, organism-based", "conditions": "dose 40-60 mg/kg, time 14.0 day"}, "HCC1806 [35]": {"system": "HCC1806", "assay": "Antitumor activity against human HCC1806 cells xenografted in Balb/c mouse at 60 mg/kg, ip bid measured after 14 days relative to control", "type": "functional", "conditions": "HCC1806, 336 h, time 14 day, read-out: TGI"}, "HCC1806 [36]": {"system": "HCC1806", "assay": "Antitumor activity against human HCC1806 cells xenografted in Balb/c mouse assessed as decrease in JAK2 level at 40 to 60 mg/kg, ip bid measured after 14 days by immunofluorescence based analysis", "type": "functional, organism-based", "conditions": "dose 40-60 mg/kg, time 14.0 day"}, "HCC1806 [37]": {"system": "HCC1806", "assay": "Antitumor activity against human HCC1806 cells xenografted in Balb/c mouse assessed as decrease in Ki67 level at 40 to 60 mg/kg, ip bid measured after 14 days by IHC analysis", "type": "functional, organism-based", "conditions": "dose 40-60 mg/kg, time 14.0 day"}}, "note": "Active and inactive are the calls of the source. No cut-off for these calls is given here."}
{"smiles": "COc1cc(Nc2cc(F)ccc2C(=O)NCCc2c[nH]c3c(F)ccc(F)c23)cc(OC)c1OC", "values": [{"measurement": "Survival", "setting": "HCC1806 [1]", "value": ">80", "unit": "%"}, {"measurement": "inhibition", "setting": "MDA-MB-231 [2]", "value": "Active"}, {"measurement": "inhibition", "setting": "HCC1806 [3]", "value": "Active"}, {"measurement": "Activity", "setting": "HCC1806 [4]", "value": "Active"}, {"measurement": "viability at 0.1 µM", "setting": "MDA-MB-231 [5]", "value": 96.9, "unit": "%"}, {"measurement": "Activity", "setting": "MDA-MB-231 [6]", "value": 1.66, "unit": "%"}, {"measurement": "Activity", "setting": "MDA-MB-231 [7]", "value": 1.69, "unit": "%"}, {"measurement": "Activity", "setting": "MDA-MB-231 [8]", "value": 0.19, "unit": "%"}, {"measurement": "Activity", "setting": "MDA-MB-231 [9]", "value": 2.31, "unit": "%"}, {"measurement": "viability at 0.8 µM", "setting": "MDA-MB-231 [10]", "value": 94.6, "unit": "%"}, {"measurement": "Activity", "setting": "MDA-MB-231 [11]", "value": 2.15, "unit": "%"}, {"measurement": "viability at 1.6 µM", "setting": "MDA-MB-231 [12]", "value": 87.4, "unit": "%"}, {"measurement": "Activity", "setting": "HCC1806 [13]", "value": 0.11, "unit": "%"}, {"measurement": "viability at 0.2 µM", "setting": "HCC1806 [14]", "value": 98.1, "unit": "%"}, {"measurement": "Activity", "setting": "HCC1806 [15]", "value": 1.13, "unit": "%"}, {"measurement": "Activity", "setting": "HCC1806 [16]", "value": 0.45, "unit": "%"}, {"measurement": "Activity", "setting": "HCC1806 [17]", "value": 0.33, "unit": "%"}, {"measurement": "Activity", "setting": "HCC1806 [18]", "value": 4.23, "unit": "%"}, {"measurement": "Activity", "setting": "HCC1806 [19]", "value": 0.29, "unit": "%"}, {"measurement": "Activity", "setting": "HCC1806 [20]", "value": 1.92, "unit": "%"}, {"measurement": "inhibition", "setting": "MDA-MB-231 [21]", "value": "Active"}, {"measurement": "inhibition", "setting": "MDA-MB-231 [22]", "value": "Active"}, {"measurement": "Activity", "setting": "MDA-MB-231 [23]", "value": "Active"}, {"measurement": "Activity", "setting": "MDA-MB-231 [24]", "value": "Active"}, {"measurement": "Activity", "setting": "HCC1806 [25]", "value": "Active"}, {"measurement": "Activity", "setting": "HCC1806 [26]", "value": "Active"}, {"measurement": "Activity", "setting": "HCC1806 [27]", "value": "Active"}, {"measurement": "Activity", "setting": "HCC1806 [28]", "value": "Active"}, {"measurement": "Activity", "setting": "HCC1806 [29]", "value": "inactive"}, {"measurement": "Activity", "setting": "[30]", "value": "Non-Toxic"}, {"measurement": "Tmax", "setting": "[31]", "value": 2.67, "unit": "h"}, {"measurement": "AUC(0-inf)", "setting": "[32]", "value": 1970, "unit": "ng·h/mL"}, {"measurement": "Activity", "setting": "[33]", "value": "Non-Toxic"}, {"measurement": "Activity", "setting": "HCC1806 [34]", "value": "Active"}, {"measurement": "inhibition in vivo at 60 mg/kg", "setting": "HCC1806 [35]", "value": 67.7, "unit": "%"}, {"measurement": "Activity", "setting": "HCC1806 [36]", "value": "Active"}, {"measurement": "Activity", "setting": "HCC1806 [37]", "value": "Active"}]}
